Measurements from patent US20190053492A1, “SUBSTITUTED PYRIDINE COMPOUNDS AS PESTICIDES” (Bayer CropScience Aktiengesellschaft, priority 2016, published 2019).
Read-outs that look alike come from different tables or passages of the source.

Experiments:
[1] = system: Ctenocephalides felis; assay: Ctenocephalides felis oral test; type: in vivo; details: application rate 100 ppm in citrated cattle blood, after 2 days, adult cat fleas; for pest or weed control at 100 ppm: Ctenocephalides felis, po, 48 h, read-out: efficacy (kill in %)
Method: Ctenocephalides felis—Oral Test Solvent: dimethyl sulphoxide To produce a suitable active ingredient formulation, 10 mg of active ingredient are mixed with 0.5 ml of dimethyl sulphoxide. Dilution with citrated cattle blood gives the desired concentration. About 20 unfed adult cat fleas (Ctenocephalides felis) are placed into a chamber which is closed at the top and bottom with gauze. A metal cylinder whose bottom end is closed with parafilm is placed onto the chamber. The cylinder contains the blood/active ingredient formulation, which can be imbibed by the fleas through the parafilm membrane. After 2 days, the kill in % is determined. 100% means that all of the fleas have been killed; 0% means that none of the fleas have been killed.

[2] = system: Spodoptera frugiperda; assay: Spodoptera frugiperda spray test; type: in vivo; details: after 7 days, maize leaf discs; for pest or weed control at 100 g/ha / pest or weed control at 500 g/ha: Spodoptera frugiperda, foliar, 168 h, read-out: efficacy (caterpillars killed)
Summary of the method: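 Efficacy in % was scored at 7 days against armyworm caterpillars placed on dried, compound-sprayed Zea mays leaf discs. Compound was dissolved in acetone/dimethylformamide and diluted in water with 1000 ppm alkylaryl polyglycol ether. 100% means all caterpillars were killed.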

[3] = system: Lucilia cuprina; assay: Lucilia cuprina test; type: in vivo; details: application rate 100 ppm, after 2 days, L1 larvae
Method: Lucilia cuprina Test Solvent: dimethyl sulphoxide To produce a suitable active ingredient formulation, 10 mg of active ingredient are mixed with 0.5 ml of dimethyl sulphoxide, and the concentrate is diluted with water to the desired concentration. About 20 L1 larvae of the Australian sheep blowfly (Lucilia cuprina) are transferred into a test vessel containing minced horsemeat and the active ingredient formulation of the desired concentration. After 2 days, the kill in % is determined. 100% means that all the larvae have been killed; 0% means that no larvae have been killed.

[4] = system: Phaedon cochleariae; assay: Phaedon cochleariae spray test; type: in vivo; details: after 7 days, Chinese cabbage leaf discs
Summary of the method: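 Larval kill read at day 7 as percent, where 100% means every larva dead and 0% none; larvae were placed on dried Brassica pekinensis leaf discs previously sprayed with the formulation (acetone/dimethylformamide solvent, alkylaryl polyglycol ether emulsifier, water).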

[5] = log P by HPLC on reversed-phase column (C 18), EEC Directive 79/831 Annex V.A8; type: physicochemical; details: 55° C.; for LOGP_HCOOH: log P (HCOOH); for chromatographic logP: reversed-phase HPLC column (C 18)
Method: Temperature: 55° C. […] Called log P (HCOOH) in the table. […] Called log P (neutral) in the table.

[6] = acidic range pH 2.7, 0.1% aqueous formic acid and acetonitrile, reversed-phase column (C 18)
[7] = log P, neutral range, HPLC on reversed-phase column (C 18)
[8] = Phaedon cochleariae, foliar, 168 h, application rate 500 g/ha, read-out: efficacy (beetle larvae killed)
[9] = pH 2.7, LC-MS acidic range, pH 2.7, 0.1% formic acid/acetonitrile, read-out: log P (acidic) / log P (HCOOH)
[10] = pH 7.8, LC-MS neutral range, pH 7.8, ammonium hydrogencarbonate/acetonitrile, read-out: log P (neutral)
[11] = acidic range at pH 2.7, 0.1% aqueous formic acid and acetonitrile, HPLC on reversed-phase column (C 18)

SMILES | efficacy (kill in %) [1] | efficacy (caterpillars killed) ([2]; application rate 100 g/ha) | efficacy (caterpillars killed) ([2]; application rate 500 g/ha) | efficacy (kill in %) [3] | efficacy (beetle larvae killed) ([4]; application rate 100 g/ha) | efficacy (beetle larvae killed) ([4]; application rate 500 g/ha) | LOGP_HCOOH [5, 6] | LOGP_NEUTRAL [5, 7] | pest or weed control at 100 ppm [1] | pest or weed control at 100 g/ha ([2]; application rate 100 g/ha) | pest or weed control at 500 g/ha ([2]; application rate 500 g/ha) | pest or weed control at 100 g/ha ([4]; Phaedon cochleariae, foliar, 168 h, application rate 100 g/ha, read-out: efficacy (beetle larvae killed)) | pest or weed control at 500 g/ha [4, 8] | chromatographic logP [5, 9] | chromatographic logP [5, 10] | LOGP_HCOOH [5, 11] | LOGP_NEUTRAL ([5]; log P (neutral), HPLC reversed-phase column (C 18))
N#Cc1ccc(CNC(=O)c2cc(-c3ccc(C(F)(F)F)cc3)cc(NC(=O)C3CC3)n2)cc1 [Example I-005] | 100% | 100% | 100% | 100% | 100% | 100% | 3.73 | – | – | – | – | – | – | – | – | – | –
O=C(NCc1ccc(Cl)cc1)c1cc(-c2ccc(C(F)(F)F)cc2)cc(NC(=O)C2CC2)n1 [Example I-008] | 100% | 100% | 100% | 95% | – | – | 4.48 | 4.34 | – | – | – | – | – | – | – | – | –
CC(C)C(=O)Nc1cc(-c2ccc(C(F)(F)F)cc2)cc(C(=O)NCc2ccc(C#N)cc2)n1 [Example I-015] | 98% | 100% | 100% | 100% | 83% | 100% | 3.91 | 3.85 | – | – | – | – | – | – | – | – | –
O=C(Nc1ccc(Cl)cc1)c1cc(-c2ccc(C(F)(F)F)cc2)cc(NC(=O)C2CC2)n1 [Example I-021] | – | – | 100% | 85% | – | 100% | 4.96 | 5.08 | – | – | – | – | – | – | – | – | –
O=C(NCc1ccc(C(F)(F)F)cc1)c1cc(-c2ccc(C(F)(F)F)cc2)cc(NC(=O)C2CC2)n1 [Example I-027] | 100% | 100% | 100% | 90% | 100% | 100% | 4.62 | 4.50 | – | – | – | – | – | – | – | – | –
O=C(NC1CC1)c1cc(-c2ccc(OC(F)F)cc2)cc(NC(=O)C2CC2)n1 [Example I-030] | 100% | 83% | 100% | 90% | 100% | 100% | 2.94 | 2.83 | – | – | – | – | – | – | – | – | –
CN(Cc1ccc(C#N)cc1)C(=O)c1cc(-c2ccc(C(F)(F)F)cc2)cc(NC(=O)C2CC2)n1 [Example I-043] | 100% | – | 100% | 100% | – | 100% | 3.67 | 3.58 | – | – | – | – | – | – | – | – | –
N#Cc1ccc(CNC(=O)c2cc(-c3ccc(OC(F)(F)F)cc3)cc(NC(=O)C3CC3)n2)cc1 [Example I-044, N-(4-Cyanobenzyl)-6-[(cyclopropylcarbonyl)amino]-4-[4-(trifluoromethoxy)phenyl]pyridine-2-carboxamide] | – | – | – | 100% | – | – | 3.90 | 3.76 | 100% | 100% | 100% | 100% | 100% | 3.9 | 3.76 | – | –
CCC(=O)Nc1cc(-c2ccc(C(F)(F)F)cc2)cc(C(=O)NCc2ccc(C#N)cc2)n1 [Example I-048] | – | 83% | 100% | 100% | – | 100% | 4.59 | 3.47 | – | – | – | – | – | – | – | – | –
N#Cc1ccc(CNC(=O)c2cc(-c3ccc(SC(F)(F)F)cc3)cc(NC(=O)C3CC3)n2)cc1 [Example I-052] | 100% | 100% | 100% | 100% | 100% | 100% | 4.19 | 4.01 | – | – | – | – | – | – | – | – | –
N#Cc1ccc(CNC(=O)c2cc(-c3ccc(Br)cc3)cc(NC(=O)C3CC3)n2)cc1 [Example I-053] | 95% | – | 100% | 100% | – | 100% | 3.73 | 3.61 | – | – | – | – | – | – | – | – | –
CC(C)C(=O)Nc1cc(-c2ccc(OC(F)(F)F)cc2)cc(C(=O)NCc2c(F)cc(C#N)cc2F)n1 [Example I-070] | 98% | – | 83% | 100% | – | 100% | 4.31 | 4.15 | – | – | – | – | – | – | – | – | –
N#Cc1ccc(CNC(=O)c2cc(-c3ccc(OC(F)(F)F)cc3)cc(NC(=O)C3CC3)n2)cc1F [Example I-080] | 100% | 83% | 100% | 100% | 100% | 100% | 4.01 | 3.87 | – | – | – | – | – | – | – | – | –
C#CC(C)NC(=O)c1cc(-c2ccc(OC(F)(F)F)cc2)cc(NC(=O)C2CC2)n1 (centres unmarked) [Example I-130] | 100% | 83% | 100% | – | 100% | 100% | – | – | – | – | – | – | – | – | – | 3.84 | –
N#CCNC(=O)c1cc(-c2ccc(OC(F)(F)F)cc2)cc(NC(=O)C2CC2)n1 [Example I-131] | 100% | 100% | 100% | – | – | 100% | – | – | – | – | – | – | – | – | – | 3.15 | –
O=C(NC1CCC1)c1cc(-c2ccc(OC(F)(F)F)cc2)cc(NC(=O)C2CC2)n1 [Example I-133] | 100% | 100% | 100% | 100% | – | – | – | – | – | – | – | – | – | – | – | 4.00 | –
N#Cc1ccc(CNC(=O)c2cc(-c3ccc(SC4CC4)cc3)cc(NC(=O)C3CC3)n2)cc1 [Example I-142] | 100% | – | – | 90% | 100% | 100% | – | 3.86 | – | – | – | – | – | – | – | 4.07 | –
N#Cc1ccc(CNC(=O)c2cc(-c3ccc([S+]([O-])C(F)F)cc3)cc(NC(=O)C3CC3)n2)cc1 (centres unmarked) [Example I-179] | 100% | – | 83% | – | 83% | 100% | – | 2.47 | – | – | – | – | – | – | – | 2.53 | –
NC(=S)C1(NC(=O)c2cc(-c3ccc(OC(F)(F)F)cc3)cc(NC(=O)C3CC3)n2)CC1 [Example I-189] | 100% | 100% | 100% | – | 100% | 100% | – | 3.14 | – | – | – | – | – | – | – | 3.25 | –
O=C(NCc1ccc(F)c(C(F)(F)F)c1)c1cc(-c2ccc(OC(F)(F)F)cc2)cc(NC(=O)C2CC2)n1 [Example I-226] | 100% | 83% | 100% | – | – | 100% | – | – | – | – | – | – | – | – | – | 4.64 | –
COC(=O)N(C(=O)C1CC1)c1cc(-c2ccc(OC(F)(F)F)cc2)cc(C(=O)NCc2ccc(C#N)cc2)n1 [Example I-233, Methyl {6-[(4-cyanobenzyl)carbamoyl]-4-[4-(trifluoromethoxy)phenyl]pyridin-2-yl}(cyclopropylcarbonyl)carbamate] | – | – | – | – | – | – | 3.90 | – | 100% | 100% | 100% | – | 100% | 3.9 | 3.91 | – | 3.91
